Experimental data as given in ChEMBL document CHEMBL5724806, “Unraveling interindividual differences and functional consequences of gut microbial metabolism of immunosuppressants” (2024).

Assays:
Type in all cases: ADME
[1] = The drug is tested on Capnocytophaga ochracea strain: DSM7271 for biotransformation under anaerobic condition. The drug concentrations were measured over 6 timepoints collected between 0 and 12 hours of incubation by liquid-chromatography-coupled mass spectrometry (LC–MS); parameters: dose 5 uM, timepoint 0, 1.5, 3, 6, 9, 12 hours; conditions: 5 µM
[2] = The drug is tested on Bacteroides vulgatus strain: DSM1447 for biotransformation under anaerobic condition. The drug concentrations were measured over 6 timepoints collected between 0 and 12 hours of incubation by liquid-chromatography-coupled mass spectrometry (LC–MS); parameters: dose 5 uM, timepoint 0, 1.5, 3, 6, 9, 12 hours; conditions: phocaeicola vulgatus, 5 µM
[3] = (§1) The drug is tested on the gut metagenome community of A-04 with ENA study accession number: PRJEB31790 for biotransformation under microaerobic condition. The drug concentrations were measured over 7 timepoints collected between 0 and 12 hours of incubation by liquid-chromatography-coupled mass spectrometry (LC–MS); parameters: dose 5 uM, timepoint 0, 0.75, 1.5, 3, 6, 9, 12 hours; conditions: 5 µM
[4] = as §1, with “T-01” for “A-04”, “anaerobic” for “microaerobic”; parameters: dose 5 uM, timepoint 0, 0.75, 1.5, 3, 6, 9, 12 hours; conditions: 5 µM
[5] = The drug is tested on Bacteroides thetaiotaomicron strain: DSM2079 for biotransformation under anaerobic condition. The drug concentrations were measured over 6 timepoints collected between 0 and 12 hours of incubation by liquid-chromatography-coupled mass spectrometry (LC–MS); parameters: dose 5 uM, timepoint 0, 1.5, 3, 6, 9, 12 hours; conditions: 5 µM
[6] = The drug is tested on Actinomyces naeslundi strain: DSM43013 for biotransformation under anaerobic condition. The drug concentrations were measured over 6 timepoints collected between 0 and 12 hours of incubation by liquid-chromatography-coupled mass spectrometry (LC–MS); parameters: dose 5 uM, timepoint 0, 1.5, 3, 6, 9, 12 hours; conditions: actinomyces naeslundii, 5 µM
[7] = The drug is tested on Lactobacillus gasseri strain: DSM20243 for biotransformation under microaerobic condition. The drug concentrations were measured over 6 timepoints collected between 0 and 12 hours of incubation by liquid-chromatography-coupled mass spectrometry (LC–MS); parameters: dose 5 uM, timepoint 0, 1.5, 3, 6, 9, 12 hours; conditions: 5 µM
[8] = The drug is tested on Eubacterium eligens strain: DSM3376 for biotransformation under anaerobic condition. The drug concentrations were measured over 6 timepoints collected between 0 and 12 hours of incubation by liquid-chromatography-coupled mass spectrometry (LC–MS); parameters: dose 5 uM, timepoint 0, 1.5, 3, 6, 9, 12 hours; conditions: lachnospira eligens, 5 µM
[9] = The drug is tested on Streptococcus mitis strain: DSM12643 for biotransformation under microaerobic condition. The drug concentrations were measured over 6 timepoints collected between 0 and 12 hours of incubation by liquid-chromatography-coupled mass spectrometry (LC–MS); parameters: dose 5 uM, timepoint 0, 1.5, 3, 6, 9, 12 hours; conditions: 5 µM
[10] = as §1, with “T-05” for “A-04”, “anaerobic” for “microaerobic”; parameters: dose 5 uM, timepoint 0, 0.75, 1.5, 3, 6, 9, 12 hours; conditions: 5 µM

Row | Structure (SMILES) | Bacterial Biotransformation [1] | Bacterial Biotransformation [2] | Bacterial Biotransformation [3] | Bacterial Biotransformation [4] | Bacterial Biotransformation [5] | Bacterial Biotransformation [6] | Bacterial Biotransformation [7] | Bacterial Biotransformation [8] | Bacterial Biotransformation [9] | Bacterial Biotransformation [10]
1 | CO[C@H]1C[C@@H]2CC[C@@H](C)[C@@](O)(O2)C(=O)C(=O)N2CCCC[C@H]2C(=O)O[C@H]([C@H](C)C[C@@H]2CC[C@@H](O)[C@H](OC)C2)CC(=O)[C@H](C)/C=C(\C)[C@@H](O)[C@@H](OC)C(=O)[C@H](C)C[C@H](C)/C=C/C=C/C=C/1C [SIROLIMUS] | Compound metabolized | Compound NOT metabolized | Compound metabolized | Compound NOT metabolized | Compound NOT metabolized | Compound metabolized | Compound NOT metabolized | Compound metabolized | Compound NOT metabolized | Compound NOT metabolized
2 | C=CC[C@@H]1/C=C(\C)C[C@H](C)C[C@H](OC)[C@H]2O[C@@](O)(C(=O)C(=O)N3CCCC[C@H]3C(=O)O[C@H](/C(C)=C/[C@@H]3CC[C@@H](O)[C@H](OC)C3)[C@H](C)[C@@H](O)CC1=O)[C@H](C)C[C@@H]2OC.O [TACROLIMUS] | Compound NOT metabolized | Compound NOT metabolized | Compound metabolized | Compound metabolized | Compound NOT metabolized | Compound NOT metabolized | Compound NOT metabolized | Compound NOT metabolized | Compound NOT metabolized | Compound NOT metabolized
